Test results reported in patent US12643903B2, “Bifunctional compounds for degradation of EGFR and related methods of use” (BeiGene, Ltd., priority 2020, dated 2026).

Tests used:
Type in all cases: cell-based
Details in all cases: 16 h treatment, EGFR degradation by HTRF
EGFR [1] = biological target: T1, EGFR (Homo sapiens, UniProt P00533, L858R/T790M); test: Cell Degradation 1: EGFR degradation in H1975 cells, HTRF assay
T1 construct: endogenous in cells; host or cells: H1975
In short: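 H1975 cells treated with compound for 16 h, lysed 1 h at room temperature. EGFR measured by HTRF after overnight antibody incubation (665/620 nm). DC50 from four-parameter logistic fit of percent inhibition against concentration.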

EGFR [2] = biological target: T2, EGFR (Homo sapiens, UniProt P00533, DEL746-750); test: Cell Degradation 2: EGFR degradation in HCC827 cells, HTRF assay
T2 construct: endogenous in cells; host or cells: HCC827
In short: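 Compound-treated HCC827 cells were lysed after 16 h and EGFR measured by HTRF (337 nm excitation, 665/620 nm emission) after overnight antibody incubation at room temperature. DC50 came from a four-parameter fit of percent inhibition against compound concentration.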

EGFR DTC = test: Cell Degradation 3: EGFR degradation in BaF3 cells (DTC), HTRF assay
In short: (§1)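 BaF3 cells expressing EGFR (LTC triple mutant C797S/L858R/T790M or DTC) exposed to compounds for 16 h, 8 doses from 4-fold dilution, 0.2% DMSO. Residual EGFR quantified by HTRF in lysates (triple mutant lysate diluted 1:1); DC50 from four-parameter logistic fit.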

EGFR LTC = biological target: T3, EGFR LTC (Homo sapiens, UniProt P00533, C797S/L858R/T790M); test: Cell Degradation 3: EGFR degradation in BaF3 cells (LTC), HTRF assay
T3 construct: expressed in transfected cells; host or cells: BaF3
In short: as §1

T3 sequence (P00533 25-1210 T790M/C797S/L858R): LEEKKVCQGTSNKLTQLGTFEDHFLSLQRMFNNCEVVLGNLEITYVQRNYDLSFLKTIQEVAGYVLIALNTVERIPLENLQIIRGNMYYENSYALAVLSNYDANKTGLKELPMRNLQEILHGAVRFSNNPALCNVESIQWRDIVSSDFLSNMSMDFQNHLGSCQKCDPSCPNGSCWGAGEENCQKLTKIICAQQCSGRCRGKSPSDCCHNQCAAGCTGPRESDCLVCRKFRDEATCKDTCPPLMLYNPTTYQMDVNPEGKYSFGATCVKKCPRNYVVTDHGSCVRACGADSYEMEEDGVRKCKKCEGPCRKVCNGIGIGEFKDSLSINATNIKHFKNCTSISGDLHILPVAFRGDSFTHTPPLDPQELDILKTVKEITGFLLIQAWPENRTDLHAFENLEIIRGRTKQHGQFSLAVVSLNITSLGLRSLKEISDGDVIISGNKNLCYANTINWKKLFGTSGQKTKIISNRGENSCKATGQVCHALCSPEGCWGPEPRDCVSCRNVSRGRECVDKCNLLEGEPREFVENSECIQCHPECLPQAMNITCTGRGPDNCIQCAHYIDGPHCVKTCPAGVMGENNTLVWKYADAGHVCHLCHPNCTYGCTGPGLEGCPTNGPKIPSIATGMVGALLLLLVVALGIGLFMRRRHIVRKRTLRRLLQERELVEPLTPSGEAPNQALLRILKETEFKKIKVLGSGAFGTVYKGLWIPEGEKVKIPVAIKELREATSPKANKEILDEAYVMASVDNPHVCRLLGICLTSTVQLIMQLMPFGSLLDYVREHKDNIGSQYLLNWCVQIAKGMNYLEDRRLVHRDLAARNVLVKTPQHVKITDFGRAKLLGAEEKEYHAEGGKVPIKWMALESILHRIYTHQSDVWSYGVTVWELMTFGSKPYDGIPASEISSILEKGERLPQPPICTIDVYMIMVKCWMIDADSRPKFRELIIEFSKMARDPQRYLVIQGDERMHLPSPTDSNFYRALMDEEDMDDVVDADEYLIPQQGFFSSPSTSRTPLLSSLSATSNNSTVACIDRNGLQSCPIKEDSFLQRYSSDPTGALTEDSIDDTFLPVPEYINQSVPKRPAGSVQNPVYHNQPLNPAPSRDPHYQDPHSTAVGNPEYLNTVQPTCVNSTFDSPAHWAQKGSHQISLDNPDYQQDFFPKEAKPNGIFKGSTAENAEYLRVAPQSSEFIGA
T2 sequence (P00533 with tags, fused parts or gaps DEL746-750): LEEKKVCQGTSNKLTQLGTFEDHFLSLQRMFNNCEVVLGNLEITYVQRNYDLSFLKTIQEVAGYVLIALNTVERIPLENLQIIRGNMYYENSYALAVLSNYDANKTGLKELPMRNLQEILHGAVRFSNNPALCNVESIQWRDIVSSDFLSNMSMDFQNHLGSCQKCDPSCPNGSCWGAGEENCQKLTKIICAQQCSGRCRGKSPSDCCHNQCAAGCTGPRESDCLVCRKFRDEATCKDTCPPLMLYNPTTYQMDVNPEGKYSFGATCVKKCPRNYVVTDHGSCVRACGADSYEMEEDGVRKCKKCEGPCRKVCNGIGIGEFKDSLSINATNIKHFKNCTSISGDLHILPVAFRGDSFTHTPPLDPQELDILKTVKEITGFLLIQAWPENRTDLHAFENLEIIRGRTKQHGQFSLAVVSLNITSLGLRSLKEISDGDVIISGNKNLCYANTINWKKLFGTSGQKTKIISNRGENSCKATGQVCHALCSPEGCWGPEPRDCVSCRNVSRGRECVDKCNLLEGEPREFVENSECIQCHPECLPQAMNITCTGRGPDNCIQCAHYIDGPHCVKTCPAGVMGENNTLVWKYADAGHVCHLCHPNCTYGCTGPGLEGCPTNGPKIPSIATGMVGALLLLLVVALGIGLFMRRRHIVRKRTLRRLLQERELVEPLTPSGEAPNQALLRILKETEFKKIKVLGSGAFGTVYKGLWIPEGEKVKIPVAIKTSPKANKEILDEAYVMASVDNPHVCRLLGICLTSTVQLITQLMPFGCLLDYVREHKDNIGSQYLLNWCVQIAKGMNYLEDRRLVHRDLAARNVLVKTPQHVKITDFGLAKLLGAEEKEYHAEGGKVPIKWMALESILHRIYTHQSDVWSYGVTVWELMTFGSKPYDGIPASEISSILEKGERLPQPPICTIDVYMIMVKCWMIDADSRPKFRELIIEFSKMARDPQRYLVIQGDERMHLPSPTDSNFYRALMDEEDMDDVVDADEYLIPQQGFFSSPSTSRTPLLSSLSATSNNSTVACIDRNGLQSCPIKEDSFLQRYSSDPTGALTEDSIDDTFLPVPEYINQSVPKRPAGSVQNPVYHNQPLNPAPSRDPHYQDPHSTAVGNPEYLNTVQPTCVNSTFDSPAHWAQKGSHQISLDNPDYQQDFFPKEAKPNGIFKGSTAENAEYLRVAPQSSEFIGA
T2 sequence (Q96SW2 whole entry partner): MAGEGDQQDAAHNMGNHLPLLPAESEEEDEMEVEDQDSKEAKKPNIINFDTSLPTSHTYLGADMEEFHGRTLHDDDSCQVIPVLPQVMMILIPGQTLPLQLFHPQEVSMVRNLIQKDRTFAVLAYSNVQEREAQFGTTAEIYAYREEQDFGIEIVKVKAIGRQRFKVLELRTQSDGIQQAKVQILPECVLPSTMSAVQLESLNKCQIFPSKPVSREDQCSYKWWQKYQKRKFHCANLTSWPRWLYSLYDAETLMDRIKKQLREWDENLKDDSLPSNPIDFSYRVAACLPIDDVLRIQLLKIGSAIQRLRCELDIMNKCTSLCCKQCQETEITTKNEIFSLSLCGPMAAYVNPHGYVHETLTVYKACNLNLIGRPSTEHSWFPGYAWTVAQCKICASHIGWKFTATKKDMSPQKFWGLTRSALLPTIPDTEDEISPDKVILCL
T1 sequence (P00533 25-1210 T790M/L858R): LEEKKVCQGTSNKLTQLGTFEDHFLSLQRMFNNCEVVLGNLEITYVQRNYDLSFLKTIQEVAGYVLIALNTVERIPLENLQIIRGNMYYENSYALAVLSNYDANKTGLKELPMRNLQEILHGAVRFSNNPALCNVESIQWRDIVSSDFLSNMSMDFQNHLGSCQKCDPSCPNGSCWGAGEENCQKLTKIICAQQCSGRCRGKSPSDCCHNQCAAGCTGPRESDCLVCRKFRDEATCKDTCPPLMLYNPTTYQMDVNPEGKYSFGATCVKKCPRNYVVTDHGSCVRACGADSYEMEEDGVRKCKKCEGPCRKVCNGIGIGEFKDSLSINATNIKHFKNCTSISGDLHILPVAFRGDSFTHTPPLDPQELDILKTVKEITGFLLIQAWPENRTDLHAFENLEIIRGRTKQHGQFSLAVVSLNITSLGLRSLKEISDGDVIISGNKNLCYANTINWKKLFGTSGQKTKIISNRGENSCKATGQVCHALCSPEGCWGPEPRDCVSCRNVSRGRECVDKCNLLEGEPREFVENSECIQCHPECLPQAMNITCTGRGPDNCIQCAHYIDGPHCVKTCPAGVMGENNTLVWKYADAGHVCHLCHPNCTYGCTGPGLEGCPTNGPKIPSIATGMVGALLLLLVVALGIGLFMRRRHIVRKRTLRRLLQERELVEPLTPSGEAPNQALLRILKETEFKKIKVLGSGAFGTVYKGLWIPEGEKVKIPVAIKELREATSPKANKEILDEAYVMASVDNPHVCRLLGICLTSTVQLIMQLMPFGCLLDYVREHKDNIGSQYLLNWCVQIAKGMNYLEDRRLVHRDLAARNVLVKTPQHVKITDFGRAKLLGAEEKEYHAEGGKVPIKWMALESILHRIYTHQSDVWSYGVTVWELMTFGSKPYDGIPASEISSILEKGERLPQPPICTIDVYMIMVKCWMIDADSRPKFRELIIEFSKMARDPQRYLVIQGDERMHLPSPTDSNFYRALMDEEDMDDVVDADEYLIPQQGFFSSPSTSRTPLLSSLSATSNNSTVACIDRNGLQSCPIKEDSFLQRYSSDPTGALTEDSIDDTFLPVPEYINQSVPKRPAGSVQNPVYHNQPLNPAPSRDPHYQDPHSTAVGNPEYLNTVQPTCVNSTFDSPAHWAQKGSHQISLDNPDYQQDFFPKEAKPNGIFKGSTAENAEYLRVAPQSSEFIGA

Row | Structure (SMILES) | DC50 (EGFR [1]) [nM] | DC50 (EGFR [2]) [nM] | DC50 (EGFR DTC) [nM] | DC50 (EGFR LTC) [nM]
1 | COc1cc(N2CCC(N3CCN(C(=O)[C@H]4CCN(c5ccc6c(c5)C(=O)N(C5CCC(=O)NC5=O)C6=O)C4)CC3)CC2)ccc1Nc1ncc(Cl)c(Nc2cccc3c2N(S(C)(=O)=O)CC3)n1 (stereo partly drawn) [Example 87, 5-((S)-3-(4-(1-(4-((5-chloro-4-((1-(methylsulfonyl)indolin-7-yl)amino)pyrimidin-2-yl)amino)-3-methoxyphenyl)piperidin-4-yl)piperazine-1-carbonyl)pyrrolidin-1-yl)-2-(26-dioxopiperidin-3-yl)isoindoline-1,3-dione] | 3.5 | 3.1 | 2.4 | 16.5
2 | COc1cc(N2CCC(N3CCN(C(=O)[C@@H]4CCN(c5ccc6c(c5)C(=O)N(C5CCC(=O)NC5=O)C6=O)C4)CC3)CC2)ccc1Nc1ncc(Cl)c(Nc2cccc3c2N(S(C)(=O)=O)CC3)n1 (stereo partly drawn) [Example 88, 5-((R)-3-(4-(1-(4-((5-chloro-4-((1-(methylsulfonyl)indolin-7-yl)amino)pyrimidin-2-yl)amino)-3-methoxyphenyl)piperidin-4-yl)piperazine-1-carbonyl)pyrrolidin-1-yl)-2-(2,6-dioxopiperidin-3-yl)isoindoline-1,3-dione] | 4.2 | 2.7 | 15.6 | 43.3
3 | COc1cc(N2CCC(N3CCN(CCC4CCN(c5ccc6c(c5)C(=O)N(C5CCC(=O)NC5=O)C6=O)CC4)CC3)CC2)c(C)cc1Nc1ncc(Br)c(Nc2cccc3c2N(S(C)(=O)=O)CC3)n1 (stereo not drawn) [Example 91, 5-(4-(2-(4-(1-(4-((5-bromo-4-((1-(methylsulfonyl)indolin-7-yl)amino)pyrimidin-2-yl)amino)-5-methoxy-2-methylphenyl)piperidin-4-yl)piperazin-1-yl)ethyl)piperidin-1-yl)-2-(2,6-dioxopiperidin-3-yl)isoindoline-1,3-dione] | 3.5 | 6.4 | 14.9 | 39.9
4 | COc1cc(N2CCC(N3CCN(C[C@@H]4CCN(c5ccc6c(c5)CN(C5CCC(=O)NC5=O)C6=O)C4)CC3)CC2)c(C)cc1Nc1ncc(Br)c(Nc2cccc3c2N(S(C)(=O)=O)CC3)n1 (stereo partly drawn) [Example 154, 3-(5-((S)-3-((4-(1-(4-((5-bromo-4-((1-(methylsulfonyl)indolin-7-yl)amino)pyrimidin-2-yl)amino)-5-methoxy-2-methylphenyl)piperidin-4-yl)piperazin-1-yl)methyl)pyrrolidin-1-yl)-1-oxoisoindolin-2-yl)piperidine-2,6-dione] | 16 | 6 | 11 | 13
5 | COc1cc(N2CCC(N3CCN(C[C@H]4C[C@H](c5ccc6c(c5)CN(C5CCC(=O)NC5=O)C6=O)C4)CC3)CC2)c(C)cc1Nc1ncc(Br)c(Nc2cccc3c2N(S(C)(=O)=O)CC3)n1 (stereo partly drawn) [Example 159, 3-(5-((1r,3r)-3-((4-(1-(4-((5-bromo-4-((1-(methylsulfonyl)indolin-7-yl)amino)pyrimidin-2-yl)amino)-5-methoxy-2-methylphenyl)piperidin-4-yl)piperazin-1-yl)methyl)cyclobutyl)-1-oxoisoindolin-2-yl)piperidine-2,6-dione] | 3 | 2 | 11 | 19
6 | COc1cc(N2CCC(N3CCN(C[C@H]4CCN(c5ccc6c(c5)CN(C5CCC(=O)NC5=O)C6=O)C4)CC3)CC2)c(C)cc1Nc1ncc(Br)c(Nc2cccc3c2N(S(C)(=O)=O)CC3)n1 (stereo partly drawn) [Example 168, 3-(5-((R)-3-((4-(1-(4-((5-bromo-4-((1-(methylsulfonyl)indolin-7-yl)amino)pyrimidin-2-yl)amino)-5-methoxy-2-methylphenyl)piperidin-4-yl)piperazin-1-yl)methyl)pyrrolidin-1-yl)-1-oxoisoindolin-2-yl)piperidine-2,6-dione] | 7 | 2 | 14 | 25

More lines, in order of falling DC50 (EGFR [1]), values ahead:

Row | DC50 (EGFR [1]) [nM] | DC50 (EGFR [2]) [nM] | DC50 (EGFR DTC) [nM] | DC50 (EGFR LTC) [nM] | Structure (SMILES)
7 | 3 | 2.9 | 1.8 | 2.8 | COc1cc(N2CCC(N3CCN(CC4CN(c5ccc6c(c5)CN(C5CCC(=O)NC5=O)C6=O)C4)CC3)CC2)ccc1Nc1ncc(Cl)c(Nc2cccc3c2N(S(C)(=O)=O)CC3)n1 (stereo not drawn) [Example 85, 3-(5-(3-((4-(1-(4-((5-chloro-4-((1-(methylsulfonyl)indolin-7-yl)amino)pyrimidin-2-yl)amino)-3-methoxyphenyl)piperidin-4-yl)piperazin-1-yl)methyl)azetidin-1-yl)-1-oxoisoindolin-2-yl)piperidine-2,6-dione]
8 | 3 | 20 | 49 | 40 | COc1cc(N2CCC(N3CCN(CCc4cc(F)c(C5CCC(=O)NC5=O)c(F)c4)CC3)CC2)c(C)cc1Nc1nc(Nc2cccc3c2N(S(C)(=O)=O)CC3)c2cc[nH]c2n1 (stereo not drawn) [Example 163, 3-(2,6-difluoro-4-(2-(4-(1-(5-methoxy-2-methyl-4-((4-((1-(methylsulfonyl)indolin-7-yl)amino)-7H-pyrrolo[2,3-d]pyrimidin-2-yl)amino)phenyl)piperidin-4-yl)piperazin-1-yl)ethyl)phenyl)piperidine-2,6-dione]
9 | 1.8 | 2.7 | 13 | 16.2 | COc1cc(N2CCC(N3CCN(CC4CN(c5ccc6c(c5)C(=O)N(C5CCC(=O)NC5=O)C6=O)C4)CC3)CC2)ccc1Nc1ncc(Cl)c(Nc2cccc3c2N(S(C)(=O)=O)CC3)n1 (stereo not drawn) [Example 86, 5-(3-((4-(1-(4-((5-chloro-4-((1-(methylsulfonyl)indolin-7-yl)amino)pyrimidin-2-yl)amino)-3-methoxyphenyl)piperidin-4-yl)piperazin-1-yl)methyl)azetidin-1-yl)-2-(2,6-dioxopiperidin-3-yl)isoindoline-1,3-dione]
